These results are taken from patent publication US20250129101A1, “Compound, Pharmaceutical Composition Comprising the Same and Method for Treating Cancer Using the Same” (NATIONAL TSING HUA UNIVERSITY, priority 2023, published 2025).

Where only a bound is given, the exact number is not on record here.

One assay addresses T1, KIF2C (Homo sapiens, UniProt Q99661).
T1 construct: KIF2C (216-598 a.a.); 6xHis (C); made in house; host or cells: E. coli BL21 (DE3), pET-28a
Briefly: In vitro validation: KIF2C kinesin activity, malachite green-based phosphate colorimetric assay. In kind it is biochemical. The settings on record: concentration that inhibits 50% of KIF2C activity. The method, then:
(§1) The in vitro validation was performed by measuring KIF2C kinesin activity using malachite green-based phosphate colorimetric assay (BioVision). […] The microtubules from porcine brain tubulin (Cytoskeleton) or purified from HEK293 cells in Free-style medium (293Fs) were dissolved in the BRB80 buffer (80 mM PIPES pH 6.8, 1 mM EGTA, 1 mM MgCl2, 1 mM GTP, 1 mM DTT, and 10% DMSO) at 37° C. for 2 hr. Phosphates released from kinesin-mediated ATP hydrolysis was measured by adding 30 μL of the phosphate colorimetric reagent (BioVision), incubated for 10 min, and then measured with absorbance at 650 nm. […] The cell validation was performed by measuring cytotoxicity in MDA-MB-231 cells. The cells were cultured in a 96-well plate at a confluence of 2000 cells/well with indicates compounds for specific days. When the time was up, the culture medium in the plate was aspirated and replaced with a prepared CellTiter-Glo reagent (Promega)/DMEM mixture (1:1 mix of CellTiter-Glo reagent and serum-supplemented DMEM). After incubation for 10 min, the luminescence was measured with an ELISA plate reader to determine the cell viability.
In vitro kinesin activity was measured using malachite green-based phosphate colorimetric assay (BioVision). […] The microtubules from porcine brain tubulin (Cytoskeleton) or purified from HEK293 cells in Free-style medium (293Fs) were dissolved in the BRB80 buffer (80 mM PIPES pH 6.8, 1 mM EGTA, 1 mM MgCl2, 1 mM GTP, 1 mM DTT, and 10% DMSO) at 37° C. for 2 hr. Phosphates released from kinesin-mediated ATP hydrolysis was measured by adding 30 μL of the phosphate colorimetric reagent (BioVision), incubated for 10 min, and then measured with absorbance at 650 nm.
Constructs of sN+M regions of KIF2C (216-598 a.a.), KIF2A (181-562 a.a.) and KIF2B (171-553 a.a.) with C-terminal 6×His tag were subcloned into pET-28a vector and expressed in BL21 (DE3) E. coli cells (Novartis) cultured in Luria-Bertani medium supplemented with 50 ug/mL kanamycin at 37° C. After induction with 0.8 mM IPTG for 18 hr at 20° C., the cells were pelleted by centrifugation at 6000 rpm for 30 min at 10° C. The collected pellets were resuspended in 30 mL of buffer A (20 mM Tris-HCl pH 7.5, 500 mM NaCl, 10 mM imidazole, 1% CHAPS, and 1 mM PMSF) and next subjected to a high-pressure homogenizer (EmulsiFlex-C3) for cell lysis. After removing the cell debris by centrifugation at 13000 rpm for 30 min at 10° C., the recombinant Kinesin-13 in the supernatant was purified using nickel affinity chromatography. Firstly, the supernatant was applied to the Ni-NTA column (GE Healthcare) pre-equilibrated with buffer A. Secondly, the column was washed with 10× column volumes of buffer A to remove the unwanted proteins. The washed column was then eluted with 10× column volumes of buffer containing increasing concentrations of imidazole (40, 100, 300, 1000 mM), and the majority of the recombinant Kinesin-13 protein was eventually obtained in a fraction of 300 mM imidazole. The fractions containing the recombinant Kinesin-13 were subsequently concentrated in the buffer B (20 mM Tris-HCl pH 7.5, 10 mM imidazole, 50 mM NaCl, 2 mM DTT) using an Amicon® Ultra filter (Millipore) and subjected to cation exchange column (Capto S, GE Healthcare) for further purification. The recombinant Kinesin-13 was then eluted in elution buffer (20 mM Tris-HCl pH 7.5 and 2 mM DTT) containing 400 mM of NaCl and stored at −80° C. for long-term storage.

A further assay has as its system MDA-MB-231 cells. In words: Cell validation: cytotoxicity in MDA-MB-231 cells (CellTiter-Glo). The format is cell-based. As to conditions: cytotoxicity in MDA-MB-231 cells; for IC50: Homo sapiens. The method, then: as §1
The cancer cells were cultured in a 96-well plate at a confluence of 1000-2000 cells/well with indicated drugs for specific days. When the time was up, the culture medium in the plate was aspirated and replaced with a prepared CellTiter-Glo reagent/DMEM mixture (1:1 mix of CellTiter-Glo reagent and serum-supplemented DMEM). After incubation for 10 min, the luminescence (proportional to the number of living cells) was measured with an ELISA plate reader to determine the cell viability.

T1 sequence (Q99661 216-598): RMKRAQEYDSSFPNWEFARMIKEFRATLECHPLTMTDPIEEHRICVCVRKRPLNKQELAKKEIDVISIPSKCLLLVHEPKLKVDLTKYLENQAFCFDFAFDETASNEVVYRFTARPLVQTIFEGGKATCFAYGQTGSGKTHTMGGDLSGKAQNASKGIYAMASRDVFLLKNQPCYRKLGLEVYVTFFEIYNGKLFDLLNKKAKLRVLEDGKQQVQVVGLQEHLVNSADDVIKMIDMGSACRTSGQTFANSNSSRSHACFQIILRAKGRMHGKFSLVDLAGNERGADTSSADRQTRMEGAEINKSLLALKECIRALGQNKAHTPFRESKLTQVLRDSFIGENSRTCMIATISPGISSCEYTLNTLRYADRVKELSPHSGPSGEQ

`CC1=C(C(=O)OC(C)C)C(c2ccc(Br)cc2)n2c(s/c(=C\c3ccc(OCC(=O)N4CCN(C)CC4)cc3)c2=O)=N1` (centres unmarked) [20S0 (41), isopropyl (Z)-5-(4-bromophenyl)-7-methyl-2-(4-(2-(4-methylpiperazin-1-yl)-2-oxoethoxy)benzylidene)-3-oxo-2,3-dihydro-5H-thiazolo[3,2-a]pyrimidine-6-carboxylate] returned a concentration for a half-maximal effect (EC50) at KIF2C of 50 to 100 µM. Further, in the assay with MDA-MB-231 cells, the “Cell validation (IC50)” value was “+ + +”.
The like results for `CC1=C(C(=O)OC(C)C)C(c2ccc(-n3ccnc3)cc2)n2c(s/c(=C\c3ccc(OCC(=O)N4CCN(C)CC4)cc3)c2=O)=N1` (centres unmarked) [21S0 (46), isopropyl (Z)-5-(4-(1H-imidazol-1-yl)phenyl)-7-methyl-2-(4-(2-(4-methylpiperazin-1-yl)-2-oxoethoxy)benzylidene)-3-oxo-2,3-dihydro-5H-thiazolo[3,2-a]pyrimidine-6-carboxylate] were, in that order, 50 to 100 µM and “+ +”.
In turn, `CC1=C(C(=O)OC(C)C)C(c2ccc(Cl)cc2)n2c(s/c(=C\c3ccc(OCC(=O)N4CCN(C5CCCCC5)CC4)cc3)c2=O)=N1` (centres unmarked) [22S0 (17), propan-2-yl (2Z)-5-(4-chlorophenyl)-2-(4-(2-(4-cyclohexylpiperazin-1-yl)-2-oxoethoxy)benzylidene)-7-methyl-3-oxo-2,3-dihydro-5H-[1,3]thiazolo[3,2-a]pyrimidine-6-carboxylate] returned an EC50 at KIF2C greater than 100 µM. The same compound came in with a half-inhibitory concentration (IC50) in the assay on MDA-MB-231 cells greater than 50 µM.
For `CC1=C(C(=O)OC(C)C)C(c2ccc(Cl)cc2)n2c(s/c(=C\c3ccc(OCC(=O)N4CCC(N(C)C)CC4)cc3)c2=O)=N1` (centres unmarked) [23S0 (18), propan-2-yl (2Z)-5-(4-chlorophenyl)-2-(4-(2-(4-(dimethylamino)piperidin-1-yl)-2-oxoethoxy)benzylidene)-7-methyl-3-oxo-2,3-dihydro-5H-[1,3]thiazolo[3,2-a]pyrimidine-6-carboxylate], the EC50 at KIF2C is less than 50 µM. In addition, the “Cell validation (IC50)” value in the assay with MDA-MB-231 cells is on record as “+ + +”.
On KIF2C, `CC1=C(C(=O)OC(C)C)C(c2ccc(Cl)cc2)n2c(s/c(=C\c3ccc(OCC(=O)N4CCC(N(C)C)CC4)cc3)c2=O)=N1.O=C(O)/C=C\C(=O)O` (centres unmarked) [23S9 (134), isopropyl (Z)-5-(4-chlorophenyl)-2-(4-(2-(4-(dimethylamino)piperidin-1-yl)-2-oxoethoxy)benzylidene)-7-methyl-3-oxo-2,3-dihydro-5H-thiazolo[3,2-a]pyrimidine-6-carboxylate maleate] gave an EC50 of less than 50 µM. The “Cell validation (IC50)” value with MDA-MB-231 cells is “+ + +”.
The like results for `CC1=C(C(=O)OC(C)C)C(c2ccc(Cl)cc2)n2c(s/c(=C\c3ccc(OCC(=O)N4CCC(N5CCN(C)CC5)CC4)cc3)c2=O)=N1` (centres unmarked) [24S0 (19), isopropyl (Z)-5-(4-chlorophenyl)-7-methyl-2-(4-(2-(4-(4-methylpiperazin-1-yl)piperidin-1-yl)-2-oxoethoxy)benzylidene)-3-oxo-2,3-dihydro-5H-thiazolo[3,2-a]pyrimidine-6-carboxylate] were, in that order, less than 50 µM and “+ + + +”.
`CC1=C(C(=O)OC(C)(C)C)C(c2ccc(Cl)cc2)n2c(s/c(=C\c3ccc(OCC(=O)N4CCN(C)CC4)cc3)c2=O)=N1` (centres unmarked) [25S0 (95)] showed a concentration for a half-maximal effect (EC50) on KIF2C greater than 100 µM. Further, the “Cell validation (IC50)” value with MDA-MB-231 cells is on record as “+ +”.
The like results for `COC(=O)C1=C(C)N=c2s/c(=C\c3ccc(OCC(=O)N4CCN(C)CC4)cc3)c(=O)n2C1c1ccc(Cl)cc1` (centres unmarked) [26S0 (93)] were, in that order, 50 to 100 µM and “+ +”.
`CC1=C(C(=O)CC(C)C)C(c2ccc(Cl)cc2)n2c(s/c(=C\c3ccc(OCC(=O)N4CCN(C)CC4)cc3)c2=O)=N1` (centres unmarked) [27S0 (98), (Z)-5-(4-chlorophenyl)-7-methyl-6-(3-methylbutanoyl)-2-(4-(2-(4-methylpiperazin-1-yl)-2-oxoethoxy)benzylidene)-5H-thiazolo[3,2-a]pyrimidin-3(2H)-one] came in with a half-maximal effective concentration (EC50) at KIF2C of 50 to 100 µM. Also, the “Cell validation (IC50)” value in the assay on MDA-MB-231 cells is “+ +”.
As for `CCC1=C(C(=O)OC(C)C)C(c2ccc(Cl)cc2)n2c(s/c(=C\c3ccc(OCC(=O)N4CCN(C)CC4)cc3)c2=O)=N1` (centres unmarked) [28S0 (105), isopropyl (Z)-5-(4-chlorophenyl)-7-ethyl-2-(4-(2-(4-methylpiperazin-1-yl)-2-oxoethoxy)benzylidene)-3-oxo-2,3-dihydro-5H-thiazolo[3,2-a]pyrimidine-6-carboxylate], at KIF2C, the EC50 was greater than 100 µM. The compound further came in with an IC50 in the assay with MDA-MB-231 cells of 20 to 50 µM.
With `CC1=C(C(=O)OCc2ccccc2)C(c2ccc(Cl)cc2)n2c(s/c(=C\c3ccc(OCC(=O)N4CCN(C)CC4)cc3)c2=O)=N1` (centres unmarked) [29S0 (97), benzyl (Z)-5-(4-chlorophenyl)-7-methyl-2-(4-(2-(4-methylpiperazin-1-yl)-2-oxoethoxy)benzylidene)-3-oxo-2,3-dihydro-5H-thiazolo[3,2-a]pyrimidine-6-carboxylate], the EC50 on KIF2C was 50 to 100 µM. Moreover, the “Cell validation (IC50)” value with MDA-MB-231 cells was “+ + +”.
Regarding `C=CCOC(=O)C1=C(C)N=c2s/c(=C\c3ccc(OCC(=O)N4CCN(C)CC4)cc3)c(=O)n2C1c1ccc(Cl)cc1` (centres unmarked) [30S0 (96), allyl (Z)-5-(4-chlorophenyl)-7-methyl-2-(4-(2-(4-methylpiperazin-1-yl)-2-oxoethoxy)benzylidene)-3-oxo-2,3-dihydro-5H-thiazolo[3,2-a]pyrimidine-6-carboxylate], the concentration for a half-maximal effect (EC50) at KIF2C was greater than 100 µM. Moreover, the “Cell validation (IC50)” value with MDA-MB-231 cells is “+ +”.
At KIF2C, `CC1=C(C(=O)OC(C)C)C(c2ccc(Cl)cc2)n2c(s/c(=C\c3ccc(OCC(=O)N4CCC(O)CC4)cc3)c2=O)=N1` (centres unmarked) [31S0 (20), isopropyl (Z)-5-(4-chlorophenyl)-2-(4-(2-(4-hydroxypiperidin-1-yl)-2-oxoethoxy)benzylidene)-7-methyl-3-oxo-2,3-dihydro-5H-thiazolo[3,2-a]pyrimidine-6-carboxylate] had a concentration for a half-maximal effect (EC50) greater than 100 µM. The IC50 with MDA-MB-231 cells is greater than 50 µM.
For `CC1=C(C(=O)OC(C)C)C(c2ccc(F)cc2)n2c(s/c(=C\c3ccc(OCC(=O)N4CCN(C)CC4)cc3)c2=O)=N1` (centres unmarked) [32S0 (36), isopropyl (Z)-5-(4-fluorophenyl)-7-methyl-2-(4-(2-(4-methylpiperazin-1-yl)-2-oxoethoxy)benzylidene)-3-oxo-2,3-dihydro-5H-thiazolo[3,2-a]pyrimidine-6-carboxylate], the 50% effective concentration (EC50) at KIF2C is greater than 100 µM. The “Cell validation (IC50)” value in the assay on MDA-MB-231 cells is “+ +”.
As for `CC1=C(C(=O)OC(C)C)C(c2ccc(Cl)cc2)n2c(s/c(=C\c3ccc(OCc4nn[nH]n4)cc3)c2=O)=N1` (centres unmarked) [33S0 (115), isopropyl (Z)-2-(4-((2H-tetrazol-5-yl)methoxy)benzylidene)-5-(4-chlorophenyl)-7-methyl-3-oxo-2,3-dihydro-5H-thiazolo[3,2-a]pyrimidine-6-carboxylate], the concentration giving a half-maximal response (EC50) on KIF2C was less than 20 µM. The same compound showed an IC50 in the assay on MDA-MB-231 cells greater than 50 µM.
Turning to `CC1=C(C(=O)OC(C)C)C(c2ccc(Cl)cc2)n2c(s/c(=C\c3ccc4c(c3)OCO4)c2=O)=N1` (centres unmarked) [34S0 (24), isopropyl (Z)-2-(benzo[d][1,3]dioxol-5-ylmethylene)-5-(4-chlorophenyl)-7-methyl-3-oxo-2,3-dihydro-5H-thiazolo[3,2-a]pyrimidine-6-carboxylate], the EC50 at KIF2C was greater than 100 µM. The same compound showed an IC50 in the assay with MDA-MB-231 cells greater than 50 µM.
